Values after ≈ are worked out from the molar mass of the structure shown.
What was measured:
Plasmodium falciparum [1] = test: Antimalarial activity against asynchronic culture of Plasmodium falciparum NF54 assessed as parasite growth inhibition at 20 ug/mL after 48 hrs by ethidium bromide staining-based spectrofluorometric analysis relative to control; type: functional; settings: NF54, 48 h, read-out: GI
[2] = Cytotoxicity against human U937 cells assessed as cell viability after 72 hrs by MTT assay; type: cell-based, U-937; settings: read-out: LC50
Leishmania panamensis [3] = test: Antileishmanial activity against amastigote stage of Leishmania panamensis MHOM/CO/87/UA140-EpiR-GFP infected in human U937 cells assessed as parasite growth inhibition at 20 ug/mL after 72 hrs by flow cytometric analysis relative to control; type: functional; settings: MHOM/CO/87/UA140, U-937, 72 h, read-out: GI
Trypanosoma cruzi [4] = test: Antitrypanosomal activity against amastigote stage of Trypanosoma cruzi Tulahuen infected in human U937 cells assessed as parasite growth inhibition at 20 ug/mL after 72 hrs by beta-galactosidase reporter gene assay relative to control; type: functional; settings: U-937, 72 h, read-out: GI
Leishmania panamensis [5] = test: Antileishmanial activity against amastigote stage of Leishmania panamensis MHOM/CO/87/UA140-EpiR-GFP infected in human U937 cells assessed as parasite growth inhibition after 72 hrs by flow cytometric analysis; type: functional, organism-based; settings: MHOM/CO/87/UA140, U-937, 72 h
[6] = Hemolytic activity in human RBC after 48 hrs by spectrophotometric analysis; type: ADME, cell-based, Erythrocyte; settings: human red blood cells (RBC), read-out: LC50
Plasmodium falciparum [7] = test: Antimalarial activity against asynchronic culture of Plasmodium falciparum NF54 assessed as parasite growth inhibition after 48 hrs by ethidium bromide staining-based spectrofluorometric analysis; type: functional, organism-based; settings: NF54, 48 h
Leishmania panamensis [8] = test: Antileishmanial activity against amastigote stage of Leishmania panamensis MHOM/CO/87/UA140-EpiR-GFP infected in human U937 cells assessed as parasite growth inhibition at 5 ug/mL after 72 hrs by flow cytometric analysis relative to control; type: functional; settings: MHOM/CO/87/UA140, U-937, 72 h, read-out: GI
Trypanosoma cruzi [9] = test: Antitrypanosomal activity against amastigote stage of Trypanosoma cruzi Tulahuen infected in human U937 cells assessed as parasite growth inhibition at 1 ug/mL after 72 hrs by beta-galactosidase reporter gene assay relative to control; type: functional; settings: U-937, 72 h, read-out: GI
Trypanosoma cruzi [10] = test: Antitrypanosomal activity against amastigote stage of Trypanosoma cruzi Tulahuen infected in human U937 cells assessed as parasite growth inhibition after 72 hrs by beta-galactosidase reporter gene assay; type: functional, organism-based; settings: U-937, 72 h

SMILES | inhibition of growth at 20 µg/mL (Plasmodium falciparum [1]) [%] | CC50 at 72 h [2] [µg/mL] | inhibition of growth at 20 µg/mL (Leishmania panamensis [3]) [%] | inhibition of growth at 20 µg/mL (Trypanosoma cruzi [4]) [%] | EC50 (Leishmania panamensis [5]) [µg/mL] | HC50 at 48 h [6] [µg/mL] | IC50 (Plasmodium falciparum [7]) [µg/mL] | inhibition of growth at 5 µg/mL (Leishmania panamensis [8]) [%] | inhibition of growth at 1 µg/mL (Trypanosoma cruzi [9]) [%] | EC50 (Trypanosoma cruzi [10]) [µg/mL]
COc1cc(/C=C/C(=O)c2ccccc2)ccc1Oc1nc2c(c(=O)n(C)c(=O)n2C)n1C | 27.5 | 131 (≈ 293 µM) | 40.4 | 0 | – | – | – | – | – | –
COc1cc(/C=C/C(=O)c2ccc(Cl)cc2)ccc1Oc1nc2c(c(=O)n(C)c(=O)n2C)n1C | 18.4 | 102 (≈ 212 µM) | 88.3 | 29.5 | 12.9 (≈ 26.8 µM) | – | – | – | – | –
COc1cc(/C=C/C(=O)c2ccc(Br)cc2)ccc1Oc1nc2c(c(=O)n(C)c(=O)n2C)n1C | 34.3 | 96.5 (≈ 184 µM) | 50.8 | 0 | – | – | – | – | – | –
COc1cc(/C=C/C(=O)c2ccc(C)cc2)ccc1Oc1nc2c(c(=O)n(C)c(=O)n2C)n1C | 54.3 | 27.5 (≈ 59.7 µM) | – | – | 2.6 (≈ 5.65 µM) | > 200 | 21.4 (≈ 46.5 µM) | 21.8 | 0 | –
COc1ccc(C(=O)/C=C/c2ccc(Oc3nc4c(c(=O)n(C)c(=O)n4C)n3C)c(OC)c2)cc1 | 0 | > 200 | 82.6 | 27.5 | 14.2 (≈ 29.8 µM) | – | – | – | – | –
COc1cc(/C=C/C(=O)c2cc(OC)c(OC)c(OC)c2)ccc1Oc1nc2c(c(=O)n(C)c(=O)n2C)n1C | 6.4 | 3.2 (≈ 5.96 µM) | – | – | 2.6 (≈ 4.85 µM) | – | – | 48.8 | 9.7 | 5.9 (≈ 11 µM)
COc1cc(C2CC(c3ccccc3)=NN2)ccc1Oc1nc2c(c(=O)n(C)c(=O)n2C)n1C (stereo unspecified) | 85.2 | 19.8 (≈ 43 µM) | – | – | – | > 200 | 13.7 (≈ 29.8 µM) | 0 | 0 | –
COc1cc(C2CC(c3ccc(Cl)cc3)=NN2)ccc1Oc1nc2c(c(=O)n(C)c(=O)n2C)n1C (stereo unspecified) | 23.9 | 34.6 (≈ 69.9 µM) | 7.7 | 36.4 | – | – | – | – | – | –
COc1cc(C2CC(c3ccc(Br)cc3)=NN2)ccc1Oc1nc2c(c(=O)n(C)c(=O)n2C)n1C (stereo unspecified) | 56.8 | > 200 | 60 | 0 | 19.5 (≈ 36.2 µM) | > 200 | 20.8 (≈ 38.6 µM) | – | – | –
COc1cc(C2CC(c3ccc(C)cc3)=NN2)ccc1Oc1nc2c(c(=O)n(C)c(=O)n2C)n1C (stereo unspecified) | 46.1 | 53.2 (≈ 112 µM) | 0 | 61.9 | – | – | – | – | – | 19.4 (≈ 40.9 µM)
COc1ccc(C2=NNC(c3ccc(Oc4nc5c(c(=O)n(C)c(=O)n5C)n4C)c(OC)c3)C2)cc1 (stereo unspecified) | 13.1 | > 200 | 0 | 25.9 | – | – | – | – | – | –
COc1cc(C2CC(c3cc(OC)c(OC)c(OC)c3)=NN2)ccc1Oc1nc2c(c(=O)n(C)c(=O)n2C)n1C (stereo unspecified) | 30.7 | > 200 | 73 | 0 | 15.8 (≈ 28.7 µM) | – | – | – | – | –
COc1cc(C2CC(c3ccccc3)=NN2C(C)=O)ccc1Oc1nc2c(c(=O)n(C)c(=O)n2C)n1C (stereo unspecified) | 62.5 | 14.8 (≈ 29.5 µM) | – | – | – | > 200 | 18.4 (≈ 36.6 µM) | 35.2 | 0 | –
COc1cc(C2CC(c3ccc(Cl)cc3)=NN2C(C)=O)ccc1Oc1nc2c(c(=O)n(C)c(=O)n2C)n1C (stereo unspecified) | 22.1 | > 200 | 39.1 | 9.8 | – | – | – | – | – | –
COc1cc(C2CC(c3ccc(Br)cc3)=NN2C(C)=O)ccc1Oc1nc2c(c(=O)n(C)c(=O)n2C)n1C (stereo unspecified) | 44.1 | 110 (≈ 189 µM) | 82.8 | 24.3 | 14.3 (≈ 24.6 µM) | – | – | – | – | –
COc1cc(C2CC(c3ccc(C)cc3)=NN2C(C)=O)ccc1Oc1nc2c(c(=O)n(C)c(=O)n2C)n1C (stereo unspecified) | 35.6 | > 200 | 63.7 | 30.6 | 18.1 (≈ 35 µM) | – | – | – | – | –
COc1ccc(C2=NN(C(C)=O)C(c3ccc(Oc4nc5c(c(=O)n(C)c(=O)n5C)n4C)c(OC)c3)C2)cc1 (stereo unspecified) | 11.6 | > 200 | 76.2 | 0 | 14.6 (≈ 27.4 µM) | – | – | – | – | –

SMILES | inhibition of growth at 20 µg/mL (Plasmodium falciparum [1]) [%] | CC50 at 72 h [2] [µg/mL] | inhibition of growth at 20 µg/mL (Leishmania panamensis [3]) [%] | inhibition of growth at 20 µg/mL (Trypanosoma cruzi [4]) [%] | EC50 (Leishmania panamensis [5]) [µg/mL] | HC50 at 48 h [6] [µg/mL] | IC50 (Plasmodium falciparum [7]) [µg/mL] | inhibition of growth at 5 µg/mL (Leishmania panamensis [8]) [%] | inhibition of growth at 1 µg/mL (Trypanosoma cruzi [9]) [%] | EC50 (Trypanosoma cruzi [10]) [µg/mL]
COc1cc(C2CC(c3cc(OC)c(OC)c(OC)c3)=NN2C(C)=O)ccc1Oc1nc2c(c(=O)n(C)c(=O)n2C)n1C (stereo unspecified) | 46.3 | > 200 | 87.6 | 15.8 | 12.6 (≈ 21.3 µM) | – | – | – | – | –
COc1cc(C2CC(c3ccccc3)=NN2C=O)ccc1Oc1nc2c(c(=O)n(C)c(=O)n2C)n1C (stereo unspecified) | 30.8 | > 200 | 53.1 | 0 | – | – | – | – | – | –
COc1cc(C2CC(c3ccc(Cl)cc3)=NN2C=O)ccc1Oc1nc2c(c(=O)n(C)c(=O)n2C)n1C (stereo unspecified) | 23.9 | > 200 | 0 | 21.1 | – | – | – | – | – | –
COc1cc(C2CC(c3ccc(Br)cc3)=NN2C=O)ccc1Oc1nc2c(c(=O)n(C)c(=O)n2C)n1C (stereo unspecified) | 46.9 | > 200 | 70.4 | 36.9 | 16.1 (≈ 28.4 µM) | – | – | – | – | –
COc1cc(C2CC(c3ccc(C)cc3)=NN2C=O)ccc1Oc1nc2c(c(=O)n(C)c(=O)n2C)n1C (stereo unspecified) | 37.1 | > 200 | 0 | 0 | – | – | – | – | – | –
COc1ccc(C2=NN(C=O)C(c3ccc(Oc4nc5c(c(=O)n(C)c(=O)n5C)n4C)c(OC)c3)C2)cc1 (stereo unspecified) | 41.7 | 38.7 (≈ 74.6 µM) | 48.1 | 27 | – | – | – | – | – | –
COc1cc(C2CC(c3cc(OC)c(OC)c(OC)c3)=NN2C=O)ccc1Oc1nc2c(c(=O)n(C)c(=O)n2C)n1C (stereo unspecified) | 29.5 | > 200 | 30.1 | 9.9 | – | – | – | – | – | –
COc1cc(C2CC(c3ccccc3)=Nc3c(C)nn(-c4ccccc4)c3N2)ccc1Oc1nc2c(c(=O)n(C)c(=O)n2C)n1C (stereo unspecified) | 85.9 | > 200 | 0 | 15.7 | – | > 200 | 13.3 (≈ 21.6 µM) | – | – | –
COc1cc(C2CC(c3ccc(Cl)cc3)=Nc3c(C)nn(-c4ccccc4)c3N2)ccc1Oc1nc2c(c(=O)n(C)c(=O)n2C)n1C (stereo unspecified) | 80.3 | > 200 | 0 | 0 | – | > 200 | 14.1 (≈ 21.7 µM) | – | – | –
COc1cc(C2CC(c3ccc(F)cc3)=Nc3c(C)nn(-c4ccccc4)c3N2)ccc1Oc1nc2c(c(=O)n(C)c(=O)n2C)n1C (stereo unspecified) | 91.7 | > 200 | 0 | 23.5 | – | > 200 | 12.5 (≈ 19.7 µM) | – | – | –
COc1cc(C2CC(c3ccc(C)cc3)=Nc3c(C)nn(-c4ccccc4)c3N2)ccc1Oc1nc2c(c(=O)n(C)c(=O)n2C)n1C (stereo unspecified) | 93.5 | > 200 | 0 | 37.7 | – | > 200 | 12.3 (≈ 19.5 µM) | – | – | –
COc1ccc(C2=Nc3c(C)nn(-c4ccccc4)c3NC(c3ccc(Oc4nc5c(c(=O)n(C)c(=O)n5C)n4C)c(OC)c3)C2)cc1 (stereo unspecified) | 84.4 | > 200 | 0 | 26.9 | – | > 200 | 13.1 (≈ 20.3 µM) | – | – | –
COc1cc(C2CC(c3cc(OC)c(OC)c(OC)c3)=Nc3c(C)nn(-c4ccccc4)c3N2)ccc1Oc1nc2c(c(=O)n(C)c(=O)n2C)n1C (stereo unspecified) | 94.2 | > 200 | 0 | 56.6 | – | > 200 | 11.3 (≈ 16 µM) | – | – | 20.3 (≈ 28.7 µM)
C[C@@H]1[C@H](O)[C@@H](C)/C=C/C=C/C=C/C=C/C=C/C=C/C=C/[C@H](O[C@@H]2O[C@H](C)[C@@H](O)[C@H](N)[C@@H]2O)C[C@@H]2O[C@](O)(C[C@@H](O)C[C@@H](O)[C@H](O)CC[C@@H](O)C[C@@H](O)CC(=O)O[C@H]1C)C[C@H](O)[C@H]2C(=O)O [AMPHOTERICIN B] | – | 36 (≈ 39 µM) | 100 | – | 0.05 (≈ 0.0541 µM) | – | – | – | – | –
O=C(Cn1ccnc1[N+](=O)[O-])NCc1ccccc1 [BENZNIDAZOLE] | – | 180 (≈ 692 µM) | – | 100 | – | – | – | – | – | 10.7 (≈ 41.1 µM)
CCN(CC)CCCC(C)Nc1ccnc2cc(Cl)ccc12 (stereo unspecified) [CHLOROQUINE] | 58.2 | – | – | – | – | – | – | – | – | –

Reference: ChEMBL document CHEMBL3407332, “An efficient synthesis of new caffeine-based chalcones, pyrazolines and pyrazolo[3,4-b][1,4]diazepines as potential antimalarial, antitrypanosomal and antileishmanial agents” (Eur J Med Chem, 2015)
